Marks after values point to notes of the source that are not given here.
Tested on: female rats
Experiment: 28-day repeated dose oral toxicity study (OECD 407) with GC-MS/LC-MS plasma metabolite profiling, female rats

SMILES: CN1CCCC1=O [1-Methyl-2-pyrrolidon]
- 3-O-Methylsphingosine (d18:1), ratio versus control (day 7): 2.14*
- 5-O-Methylsphingosine (d18:1), ratio versus control (day 7): 2.42*
- 14-Methylhexadecanoic acid, ratio versus control (day 7): 1.15
- Behenic acid (C22:0), ratio versus control (day 7): 1.9*
- Cholesterol, ratio versus control (day 7): 1.73*
- Coenzyme Q9, ratio versus control (day 7): 2.46*
- DAG (C18:1,C18:2), ratio versus control (day 7): 2.43*
- Eicosanoic acid (C20:0), ratio versus control (day 7): 1.77*
- Glucose, ratio versus control (day 7): 1.05*
- Glycerol phosphate, lipid fraction, ratio versus control (day 7): 1.86*
- Glycerol, lipid fraction, ratio versus control (day 7): 2.24*
- Glycerol-3-phosphate, polar fraction, ratio versus control (day 7): 1.9*
- Heptadecanoic acid (C17:0), ratio versus control (day 7): 1.46*
- Linoleic acid (C18:cis[9,12]2), ratio versus control (day 7): 2.52*
- Nervonic acid (C24:cis[15]1), ratio versus control (day 7): 1.75*
- Palmitic acid (C16:0), ratio versus control (day 7): 1.91*
- Phosphatidylcholine (C16:0,C20:5), ratio versus control (day 7): 1.32*
- TAG (C16:0,C18:1,C18:3), ratio versus control (day 7): 3.94*
- TAG (C16:0,C18:2), ratio versus control (day 7): 2.46*
- TAG (C18:1,C18:2), ratio versus control (day 7): 3.73*
- TAG (C18:2,C18:2), ratio versus control (day 7): 3.44*
- TAG (C18:2,C18:3), ratio versus control (day 7): 4.16*
- TAG No 01, ratio versus control (day 7): 3.21*
- TAG No 05, ratio versus control (day 7): 3.11*
- TAG No 07, ratio versus control (day 7): 3.69*
- dihomo-gamma-Linolenic acid (C20:cis[8,11,14]3), ratio versus control (day 7): 2.37*
- erythro-Sphingosine, ratio versus control (day 7): 2.19*
- 3-O-Methylsphingosine (d18:1), ratio versus control (day 14): 2.3*
- 5-O-Methylsphingosine (d18:1), ratio versus control (day 14): 2.31*
- 14-Methylhexadecanoic acid, ratio versus control (day 14): 0.93
- Behenic acid (C22:0), ratio versus control (day 14): 2.04*
- Cholesterol, ratio versus control (day 14): 2.16*
- Coenzyme Q9, ratio versus control (day 14): 2.57*
- DAG (C18:1,C18:2), ratio versus control (day 14): 2.31*
- Eicosanoic acid (C20:0), ratio versus control (day 14): 1.8*
- Glucose, ratio versus control (day 14): 0.99
- Glycerol phosphate, lipid fraction, ratio versus control (day 14): 1.72*
- Glycerol, lipid fraction, ratio versus control (day 14): 2.33*
- Glycerol-3-phosphate, polar fraction, ratio versus control (day 14): 1.11*
- Heptadecanoic acid (C17:0), ratio versus control (day 14): 1.39*
- Linoleic acid (C18:cis[9,12]2), ratio versus control (day 14): 2.4*
- Nervonic acid (C24:cis[15]1), ratio versus control (day 14): 1.64*
- Palmitic acid (C16:0), ratio versus control (day 14): 1.95*
- Phosphatidylcholine (C16:0,C20:5), ratio versus control (day 14): 1.45*
- TAG (C16:0,C18:1,C18:3), ratio versus control (day 14): 4.14*
- TAG (C16:0,C18:2), ratio versus control (day 14): 3.6*
- TAG (C18:1,C18:2), ratio versus control (day 14): 3.82*
- TAG (C18:2,C18:2), ratio versus control (day 14): 3.56*
- TAG (C18:2,C18:3), ratio versus control (day 14): 3.61*
- TAG No 01, ratio versus control (day 14): 4.15*
- TAG No 05, ratio versus control (day 14): 5.32*
- TAG No 07, ratio versus control (day 14): 3.84*
- dihomo-gamma-Linolenic acid (C20:cis[8,11,14]3), ratio versus control (day 14): 2.16*
- erythro-Sphingosine, ratio versus control (day 14): 2.27*
- 3-O-Methylsphingosine (d18:1), ratio versus control (day 28): 1.83*
- 5-O-Methylsphingosine (d18:1), ratio versus control (day 28): 1.89*
- 14-Methylhexadecanoic acid, ratio versus control (day 28): 1.35*
- Behenic acid (C22:0), ratio versus control (day 28): 2.06*
- Cholesterol, ratio versus control (day 28): 2.38*
- Coenzyme Q9, ratio versus control (day 28): 3.27*
- DAG (C18:1,C18:2), ratio versus control (day 28): 6.81*
- Eicosanoic acid (C20:0), ratio versus control (day 28): 2.79*
- Glucose, ratio versus control (day 28): 0.76*
- Glycerol phosphate, lipid fraction, ratio versus control (day 28): 2.59*
- Glycerol, lipid fraction, ratio versus control (day 28): 5.75*
- Glycerol-3-phosphate, polar fraction, ratio versus control (day 28): 1.29
- Heptadecanoic acid (C17:0), ratio versus control (day 28): 2.17*
- Linoleic acid (C18:cis[9,12]2), ratio versus control (day 28): 4.46*
- Nervonic acid (C24:cis[15]1), ratio versus control (day 28): 1.75*
- Palmitic acid (C16:0), ratio versus control (day 28): 3.53*
- Phosphatidylcholine (C16:0,C20:5), ratio versus control (day 28): 1.35*
- TAG (C16:0,C18:1,C18:3), ratio versus control (day 28): 11.37*
- TAG (C16:0,C18:2), ratio versus control (day 28): 3.51*
- TAG (C18:1,C18:2), ratio versus control (day 28): 7.38*
- TAG (C18:2,C18:2), ratio versus control (day 28): 7.33*
- TAG (C18:2,C18:3), ratio versus control (day 28): 11.21*
- TAG No 01, ratio versus control (day 28): 11.51*
- TAG No 05, ratio versus control (day 28): 10.76*
- TAG No 07, ratio versus control (day 28): 14.21*
- dihomo-gamma-Linolenic acid (C20:cis[8,11,14]3), ratio versus control (day 28): 3.96*
- erythro-Sphingosine, ratio versus control (day 28): 1.9*

SMILES: CNC(=O)/C(=N/OC)c1ccccc1COc1cc(C)ccc1C [Dimoxystrobin, (E)-2-(methoxyimino)-N-methyl-2-[alpha-(2,5-xylyloxy)-o-tolyl]acetamide]
- 3-O-Methylsphingosine (d18:1), ratio versus control (day 7): 2.18*
- 5-O-Methylsphingosine (d18:1), ratio versus control (day 7): 1.94*
- 14-Methylhexadecanoic acid, ratio versus control (day 7): 1.27
- Behenic acid (C22:0), ratio versus control (day 7): 2.03*
- Cholesterol, ratio versus control (day 7): 1.66*
- Coenzyme Q9, ratio versus control (day 7): 1.51*
- DAG (C18:1,C18:2), ratio versus control (day 7): 2.28*
- Eicosanoic acid (C20:0), ratio versus control (day 7): 2.23*
- Glucose, ratio versus control (day 7): 1.14
- Glycerol phosphate, lipid fraction, ratio versus control (day 7): 1.68*
- Glycerol, lipid fraction, ratio versus control (day 7): 2.08*
- Glycerol-3-phosphate, polar fraction, ratio versus control (day 7): 1.38
- Heptadecanoic acid (C17:0), ratio versus control (day 7): 1.81*
- Linoleic acid (C18:cis[9,12]2), ratio versus control (day 7): 2.12*
- Nervonic acid (C24:cis[15]1), ratio versus control (day 7): 1.83*
- Palmitic acid (C16:0), ratio versus control (day 7): 1.99*
- Phosphatidylcholine (C16:0,C20:5), ratio versus control (day 7): 1.33*
- TAG (C16:0,C18:1,C18:3), ratio versus control (day 7): 4.17*
- TAG (C16:0,C18:2), ratio versus control (day 7): 3.49*
- TAG (C18:1,C18:2), ratio versus control (day 7): 4.18*
- TAG (C18:2,C18:2), ratio versus control (day 7): 3.69*
- TAG (C18:2,C18:3), ratio versus control (day 7): 3.61*
- TAG No 01, ratio versus control (day 7): 2.62*
- TAG No 05, ratio versus control (day 7): 2.89*
- TAG No 07, ratio versus control (day 7): 2.5*
- dihomo-gamma-Linolenic acid (C20:cis[8,11,14]3), ratio versus control (day 7): 2.95*
- erythro-Sphingosine, ratio versus control (day 7): 1.86*
- 3-O-Methylsphingosine (d18:1), ratio versus control (day 14): 1.78*
- 5-O-Methylsphingosine (d18:1), ratio versus control (day 14): 1.94*
- 14-Methylhexadecanoic acid, ratio versus control (day 14): 1.15
- Behenic acid (C22:0), ratio versus control (day 14): 2.23*
- Cholesterol, ratio versus control (day 14): 1.7*
- Coenzyme Q9, ratio versus control (day 14): 1.91
- DAG (C18:1,C18:2), ratio versus control (day 14): 2.99*
- Eicosanoic acid (C20:0), ratio versus control (day 14): 2.54*
- Glucose, ratio versus control (day 14): 1.17
- Glycerol phosphate, lipid fraction, ratio versus control (day 14): 1.69*
- Glycerol, lipid fraction, ratio versus control (day 14): 2.44*
- Glycerol-3-phosphate, polar fraction, ratio versus control (day 14): 1.32*
- Heptadecanoic acid (C17:0), ratio versus control (day 14): 1.73*
- Linoleic acid (C18:cis[9,12]2), ratio versus control (day 14): 2.2*
- Nervonic acid (C24:cis[15]1), ratio versus control (day 14): 1.54*
- Palmitic acid (C16:0), ratio versus control (day 14): 1.89*
- Phosphatidylcholine (C16:0,C20:5), ratio versus control (day 14): 1.54*
- TAG (C16:0,C18:1,C18:3), ratio versus control (day 14): 5.45*
- TAG (C16:0,C18:2), ratio versus control (day 14): 4.36*
- TAG (C18:1,C18:2), ratio versus control (day 14): 3.37*
- TAG (C18:2,C18:2), ratio versus control (day 14): 3.82*
- TAG (C18:2,C18:3), ratio versus control (day 14): 2.41*
- TAG No 01, ratio versus control (day 14): 1.93*
- TAG No 05, ratio versus control (day 14): 3.02*
- TAG No 07, ratio versus control (day 14): 3.54*
- dihomo-gamma-Linolenic acid (C20:cis[8,11,14]3), ratio versus control (day 14): 2.58*
- erythro-Sphingosine, ratio versus control (day 14): 1.78*
- 3-O-Methylsphingosine (d18:1), ratio versus control (day 28): 1.52*
- 5-O-Methylsphingosine (d18:1), ratio versus control (day 28): 1.59*
- 14-Methylhexadecanoic acid, ratio versus control (day 28): 1.31*
- Behenic acid (C22:0), ratio versus control (day 28): 2.03*
- Cholesterol, ratio versus control (day 28): 1.75*
- Coenzyme Q9, ratio versus control (day 28): 1.78*
- DAG (C18:1,C18:2), ratio versus control (day 28): 2.85*
- Eicosanoic acid (C20:0), ratio versus control (day 28): 2.08*
- Glucose, ratio versus control (day 28): 1.15
- Glycerol phosphate, lipid fraction, ratio versus control (day 28): 1.98*
- Glycerol, lipid fraction, ratio versus control (day 28): 2.58*
- Glycerol-3-phosphate, polar fraction, ratio versus control (day 28): 1.79
- Heptadecanoic acid (C17:0), ratio versus control (day 28): 2.84*
- Linoleic acid (C18:cis[9,12]2), ratio versus control (day 28): 2.2*
- Nervonic acid (C24:cis[15]1), ratio versus control (day 28): 1.38*
- Palmitic acid (C16:0), ratio versus control (day 28): 2.03*
- Phosphatidylcholine (C16:0,C20:5), ratio versus control (day 28): 1.15*
- TAG (C16:0,C18:1,C18:3), ratio versus control (day 28): 3.93*
- TAG (C16:0,C18:2), ratio versus control (day 28): 3.68*
- TAG (C18:1,C18:2), ratio versus control (day 28): 4.49*
- TAG (C18:2,C18:2), ratio versus control (day 28): 5.11*
- TAG (C18:2,C18:3), ratio versus control (day 28): 3.9*
- TAG No 01, ratio versus control (day 28): 2.61*
- TAG No 05, ratio versus control (day 28): 4.39*
- TAG No 07, ratio versus control (day 28): 4.13*
- dihomo-gamma-Linolenic acid (C20:cis[8,11,14]3), ratio versus control (day 28): 3.54*
- erythro-Sphingosine, ratio versus control (day 28): 1.46*

From patent US20150017667A1, “MEANS AND METHODS FOR ASSESSING LIVER DISORDERS” (BASF SE, priority 2012, published 2015)
